Results from paper PMC5218480 (PLoS ONE, 2017).

Test system: MV-4-11 cells
Assay: Gene expression microarray analysis (Affymetrix PrimeView) and GSEA
Assay type: cell-based, human
Design: RFU PODN (11730768_x_at) / Fold change /veh PODN (11730768_x_at) / RFU LINC00158 (11744669_a_at) / Fold change /veh LINC00158 (11744669_a_at) / RFU DUSP10 (11751237_a_at) / Fold change /veh DUSP10 (11751237_a_at) / RFU ID3 (11757404_x_at) / Fold change /veh ID3 (11757404_x_at) / RFU PLEKHG5 (11737974_s_at) / Fold change /veh PLEKHG5 (11737974_s_at) / RFU LRRC4B (11730491_at) / Fold change /veh LRRC4B (11730491_at) / RFU GIMAP4 (11747438_a_at) / Fold change /veh GIMAP4 (11747438_a_at) / RFU KRT8 (11758183_x_at) / Fold change /veh KRT8 (11758183_x_at) / RFU CNN1 (11734310_a_at) / Fold change /veh CNN1 (11734310_a_at) / RFU VPS37D (11726825_at) / Fold change /veh VPS37D (11726825_at) / RFU C10orf10 (11716522_x_at) / Fold change /veh C10orf10 (11716522_x_at) / RFU KIR2DL2 /// KIR2DL4 /// KIR2DL5A /// KIR2DL5B /// KIR2DS1 /// KIR2DS2 /// KIR2DS3 /// KIR2DS4 /// KIR3DL3 /// KIR3DL3 /// KIR3DS1 (11738374_at) / Fold change /veh KIR2DL2 /// KIR2DL4 /// KIR2DL5A /// KIR2DL5B /// KIR2DS1 /// KIR2DS2 /// KIR2DS3 /// KIR2DS4 /// KIR3DL3 /// KIR3DL3 /// KIR3DS1 (11738374_at) / RFU C1QL1 (11718748_at) / Fold change /veh C1QL1 (11718748_at) / RFU TMPRSS4 (11747572_a_at) / Fold change /veh TMPRSS4 (11747572_a_at) / RFU HAMP (11756126_x_at) / Fold change /veh HAMP (11756126_x_at) / RFU RNFT2 (11725882_a_at) / Fold change /veh RNFT2 (11725882_a_at) / RFU NR4A2 (11747474_a_at) / Fold change /veh NR4A2 (11747474_a_at) / RFU ABCC12 (11746883_a_at) / Fold change /veh ABCC12 (11746883_a_at) / RFU TMEM136 (11760407_x_at) / Fold change /veh TMEM136 (11760407_x_at) / RFU CLDN22 /// WWC2 (11732394_at) / Fold change /veh CLDN22 /// WWC2 (11732394_at) / RFU HLA-DPB1 (11760878_x_at) / Fold change /veh HLA-DPB1 (11760878_x_at) / RFU SPINT1 (11716480_a_at) / Fold change /veh SPINT1 (11716480_a_at) / RFU GAP43 (11754022_s_at) / Fold change /veh GAP43 (11754022_s_at) / RFU A4GNT (11735810_at) / Fold change /veh A4GNT (11735810_at) / RFU PRB3 (11715151_x_at) / Fold change /veh PRB3 (11715151_x_at) / RFU TUBB4B (11761932_at) / Fold change /veh TUBB4B (11761932_at) / RFU CAPN14 (11732068_a_at) / Fold change /veh CAPN14 (11732068_a_at) / RFU TMCC2 (11721928_a_at) / Fold change /veh TMCC2 (11721928_a_at) / RFU IRGQ (11745062_a_at) / Fold change /veh IRGQ (11745062_a_at) / RFU FAM174B (11720279_a_at) / Fold change /veh FAM174B (11720279_a_at) / RFU TMPRSS4 (11748680_a_at) / Fold change /veh TMPRSS4 (11748680_a_at) / RFU FAM212B (11763350_a_at) / Fold change /veh FAM212B (11763350_a_at) / RFU PLEKHG5 (11743358_a_at) / Fold change /veh PLEKHG5 (11743358_a_at) / RFU ZSCAN30 (11745921_a_at) / Fold change /veh ZSCAN30 (11745921_a_at) / RFU CMKLR1 (11741424_a_at) / Fold change /veh CMKLR1 (11741424_a_at) / RFU LOC101060620 /// MAPK8IP1 (11723275_at) / Fold change /veh LOC101060620 /// MAPK8IP1 (11723275_at) / RFU SPTSSB (11747773_x_at) / Fold change /veh SPTSSB (11747773_x_at) / RFU PRSS12 (11739890_at) / Fold change /veh PRSS12 (11739890_at) / RFU BIN1 (11741810_x_at) / Fold change /veh BIN1 (11741810_x_at) / RFU WNT11 (11732464_a_at) / Fold change /veh WNT11 (11732464_a_at) / RFU C10orf10 (11716521_a_at) / Fold change /veh C10orf10 (11716521_a_at) / RFU C5orf56 (11738089_at) / Fold change /veh C5orf56 (11738089_at) / RFU CYB561 (11721691_x_at) / Fold change /veh CYB561 (11721691_x_at) / RFU ANKRD19P (11752326_a_at) / Fold change /veh ANKRD19P (11752326_a_at) / RFU OR2T12 /// OR2T33 /// OR2T8 (11738714_s_at) / Fold change /veh OR2T12 /// OR2T33 /// OR2T8 (11738714_s_at) / RFU VCAN (11748164_a_at) / Fold change /veh VCAN (11748164_a_at) / RFU JSRP1 (11732532_at) / Fold change /veh JSRP1 (11732532_at) / RFU KRTAP10-11 (11738290_x_at) / Fold change /veh KRTAP10-11 (11738290_x_at) / RFU MYO3A (11730013_a_at) / Fold change /veh MYO3A (11730013_a_at) / RFU EBF3 (11725865_a_at) / Fold change /veh EBF3 (11725865_a_at) / RFU CAMK2N1 (11719241_x_at) / Fold change /veh CAMK2N1 (11719241_x_at) / RFU C5orf56 (11738088_a_at) / Fold change /veh C5orf56 (11738088_a_at) / RFU OLFML3 (11715873_a_at) / Fold change /veh OLFML3 (11715873_a_at) / RFU LOC100653217 /// NTM (11731650_a_at) / Fold change /veh LOC100653217 /// NTM (11731650_a_at) / RFU MAPK11 (11762145_a_at) / Fold change /veh MAPK11 (11762145_a_at) / RFU FIZ1 (11724087_x_at) / Fold change /veh FIZ1 (11724087_x_at) / RFU OASL (11726364_x_at) / Fold change /veh OASL (11726364_x_at) / RFU SOX15 (11748057_x_at) / Fold change /veh SOX15 (11748057_x_at) / RFU CD79A (11719716_a_at) / Fold change /veh CD79A (11719716_a_at) / RFU HIST1H1D (11736915_at) / Fold change /veh HIST1H1D (11736915_at) / RFU CASKIN2 (11723855_a_at) / Fold change /veh CASKIN2 (11723855_a_at) / RFU LOC730098 (11760151_x_at) / Fold change /veh LOC730098 (11760151_x_at) / RFU OR4N2 (11742367_at) / Fold change /veh OR4N2 (11742367_at) / RFU PRRT2 (11749266_a_at) / Fold change /veh PRRT2 (11749266_a_at) / RFU SNX32 (11753110_a_at) / Fold change /veh SNX32 (11753110_a_at) / RFU CDHR5 (11726645_a_at) / Fold change /veh CDHR5 (11726645_a_at) / RFU RCAN1 (11760418_a_at) / Fold change /veh RCAN1 (11760418_a_at) / RFU FAM167A (11723789_a_at) / Fold change /veh FAM167A (11723789_a_at) / RFU FAM26E (11764081_at) / Fold change /veh FAM26E (11764081_at) / RFU ISYNA1 (11749810_s_at) / Fold change /veh ISYNA1 (11749810_s_at) / RFU ACY1 (11761880_at) / Fold change /veh ACY1 (11761880_at) / RFU 11764098_at / Fold change /veh 11764098_at / RFU SAMD14 (11745864_x_at) / Fold change /veh SAMD14 (11745864_x_at) / RFU NPB (11741838_a_at) / Fold change /veh NPB (11741838_a_at) / RFU TMPRSS6 (11731388_a_at) / Fold change /veh TMPRSS6 (11731388_a_at) / RFU KRTAP10-2 (11738614_at) / Fold change /veh KRTAP10-2 (11738614_at) / RFU ARHGAP8 /// PRR5-ARHGAP8 (11727945_x_at) / Fold change /veh ARHGAP8 /// PRR5-ARHGAP8 (11727945_x_at) / RFU KRTAP5-7 /// NADSYN1 (11734609_at) / Fold change /veh KRTAP5-7 /// NADSYN1 (11734609_at) / RFU RASL12 (11751679_a_at) / Fold change /veh RASL12 (11751679_a_at) / RFU CDKN2B (11736163_a_at) / Fold change /veh CDKN2B (11736163_a_at) / RFU PRF1 (11729649_at) / Fold change /veh PRF1 (11729649_at) / RFU, ZNF638 /// ZNF638-IT1 / Fold change vs veh, ZNF638 /// ZNF638-IT1 / RFU, PANK3 / Fold change vs veh, PANK3 / RFU, SH3YL1 / Fold change vs veh, SH3YL1 / RFU, ZEB2 / Fold change vs veh, ZEB2 / RFU, NRIP1 / Fold change vs veh, NRIP1 / RFU, PTTG1IP / Fold change vs veh, PTTG1IP / RFU, CAPN2 / Fold change vs veh, CAPN2 / RFU, MED14 / Fold change vs veh, MED14 / RFU, SNORA58 / Fold change vs veh, SNORA58 / RFU, C1orf63 / Fold change vs veh, C1orf63 / RFU, LRRFIP1 / Fold change vs veh, LRRFIP1 / RFU, NDUFAF7 / Fold change vs veh, NDUFAF7 / RFU, SLC12A2 / Fold change vs veh, SLC12A2 / RFU, IBTK / Fold change vs veh, IBTK / RFU, ESF1 / Fold change vs veh, ESF1 / Fold change vs veh, TMEM50B / RFU, TAOK1 / Fold change vs veh, TAOK1 / RFU, ACBD3 / Fold change vs veh, ACBD3 / RFU, TMA16 / Fold change vs veh, TMA16 / RFU, RWDD3 / Fold change vs veh, RWDD3 / RFU, BCAT1 / Fold change vs veh, BCAT1 / RFU, EDEM3 / Fold change vs veh, EDEM3 / RFU, TMEM33 / Fold change vs veh, TMEM33 / RFU, WDR75 / Fold change vs veh, WDR75 / RFU, AHCTF1 / Fold change vs veh, AHCTF1 / RFU, TFRC / Fold change vs veh, TFRC / RFU, ZDHHC17 / Fold change vs veh, ZDHHC17 / RFU, NOM1 / Fold change vs veh, NOM1 / RFU, ARL8B / Fold change vs veh, ARL8B / RFU, ZBTB11 / Fold change vs veh, ZBTB11 / RFU, TAMM41 / Fold change vs veh, TAMM41 / RFU, KIAA1704 /// LOC100996395 / Fold change vs veh, KIAA1704 /// LOC100996395 / RFU, ING1 / Fold change vs veh, ING1 / RFU, TRMT61B / Fold change vs veh, TRMT61B / RFU, FUBP3 / Fold change vs veh, FUBP3 / RFU, TP53 / Fold change vs veh, TP53 / RFU, TNKS2 / Fold change vs veh, TNKS2 / RFU, ZFP14 / Fold change vs veh, ZFP14 / RFU, ACTR2 / Fold change vs veh, ACTR2 / RFU, PPP3R1 / Fold change vs veh, PPP3R1 / RFU, PIK3R1 / Fold change vs veh, PIK3R1 / RFU, HNRNPA1 / Fold change vs veh, HNRNPA1 / RFU, RNF170 / Fold change vs veh, RNF170 / RFU, ZNF28 / Fold change vs veh, ZNF28 / RFU, RNGTT / Fold change vs veh, RNGTT / RFU, OGT / Fold change vs veh, OGT / RFU, BRD1 / Fold change vs veh, BRD1 / RFU, MARS / Fold change vs veh, MARS / RFU, ZNF655 / Fold change vs veh, ZNF655 / RFU, FAHD1 / Fold change vs veh, FAHD1 / RFU, BDP1 / Fold change vs veh, BDP1 / RFU, LRRCC1 / Fold change vs veh, LRRCC1 / RFU, ARID1A / Fold change vs veh, ARID1A / RFU, ZNF146 / Fold change vs veh, ZNF146 / RFU, ZNF330 / Fold change vs veh, ZNF330 / RFU, GPN3 / Fold change vs veh, GPN3 / RFU, C9orf123 / Fold change vs veh, C9orf123 / RFU, N4BP2L2 / Fold change vs veh, N4BP2L2 / RFU, ARFIP1 / Fold change vs veh, ARFIP1 / RFU, FAM179B / Fold change vs veh, FAM179B / RFU, BCL10 / Fold change vs veh, BCL10 / RFU, UHRF1BP1L / Fold change vs veh, UHRF1BP1L / RFU, BET1 / Fold change vs veh, BET1 / RFU, CNOT2 / Fold change vs veh, CNOT2 / RFU, ZNF268 / Fold change vs veh, ZNF268 / Fold change vs veh, ZNF507 / RFU, DGCR2 / Fold change vs veh, DGCR2 / RFU, WDSUB1 / Fold change vs veh, WDSUB1 / Fold change vs veh, HSP90B1 /// MIR3652 / RFU, ADSS / Fold change vs veh, ADSS / RFU, GK / Fold change vs veh, GK / RFU, ZNF148 / Fold change vs veh, ZNF148 / RFU, TAF9 / Fold change vs veh, TAF9 / RFU, SLC1A5 / Fold change vs veh, SLC1A5 / RFU, SLMO2 / Fold change vs veh, SLMO2 / RFU, ABCC4 / Fold change vs veh, ABCC4 / RFU, LOC101060439 /// RAP1B / Fold change vs veh, LOC101060439 /// RAP1B / RFU, RFX7 / Fold change vs veh, RFX7 / RFU, GTPBP10 / Fold change vs veh, GTPBP10 / RFU, CNEP1R1 / Fold change vs veh, CNEP1R1 / RFU, BIVM-ERCC5 /// ERCC5 / Fold change vs veh, BIVM-ERCC5 /// ERCC5 / RFU, ILF3 / Fold change vs veh, ILF3 / RFU 11762660_at / Fold change /veh 11762660_at / RFU VCAN (11757783_s_at) / Fold change /veh VCAN (11757783_s_at) / RFU DDX43 (11728927_at) / Fold change /veh DDX43 (11728927_at) / RFU KRT8 (11758188_x_at) / Fold change /veh KRT8 (11758188_x_at) / RFU NKD1 (11759106_at) / Fold change /veh NKD1 (11759106_at) / RFU SRD5A1 (11742802_a_at) / Fold change /veh SRD5A1 (11742802_a_at) / RFU TPSAB1 /// TPSB2 (11721975_s_at) / Fold change /veh TPSAB1 /// TPSB2 (11721975_s_at) / RFU GSTM3 (11746129_a_at) / Fold change /veh GSTM3 (11746129_a_at) / RFU IL23R (11737362_x_at) / Fold change /veh IL23R (11737362_x_at) / RFU TMEM51 (11727254_a_at) / Fold change /veh TMEM51 (11727254_a_at) / RFU PIWIL2 (11732686_x_at) / Fold change /veh PIWIL2 (11732686_x_at) / RFU ORM1 (11744905_x_at) / Fold change /veh ORM1 (11744905_x_at) / RFU CCDC152 (11743942_at) / Fold change /veh CCDC152 (11743942_at) / RFU ECM1 (11717891_a_at) / Fold change /veh ECM1 (11717891_a_at) / RFU IL23R (11748794_a_at) / Fold change /veh IL23R (11748794_a_at) / RFU TNFAIP8L3 (11732012_x_at) / Fold change /veh TNFAIP8L3 (11732012_x_at) / RFU MBOAT4 (11741988_at) / Fold change /veh MBOAT4 (11741988_at) / RFU 11764193_at / Fold change /veh 11764193_at / RFU TMEM53 (11763286_at) / Fold change /veh TMEM53 (11763286_at) / RFU MAGEB2 (11727129_at) / Fold change /veh MAGEB2 (11727129_at) / RFU TMEM200A (11744735_a_at) / Fold change /veh TMEM200A (11744735_a_at) / RFU CCDC152 (11751479_a_at) / Fold change /veh CCDC152 (11751479_a_at) / RFU FAM211A (11726209_a_at) / Fold change /veh FAM211A (11726209_a_at) / RFU RGS16 (11746705_a_at) / Fold change /veh RGS16 (11746705_a_at) / RFU VCAN (11755009_s_at) / Fold change /veh VCAN (11755009_s_at) / RFU RHOB (11743442_s_at) / Fold change /veh RHOB (11743442_s_at) / RFU RGS16 (11720943_a_at) / Fold change /veh RGS16 (11720943_a_at) / RFU RGS16 (11720944_at) / Fold change /veh RGS16 (11720944_at) / RFU, VPS4B / Fold change vs veh, VPS4B / RFU, CREB1 / Fold change vs veh, CREB1 / RFU, DNAJC13 / Fold change vs veh, DNAJC13 / RFU, GNAQ / Fold change vs veh, GNAQ / RFU, CDK5R1 / Fold change vs veh, CDK5R1 / RFU, ZRANB3 / Fold change vs veh, ZRANB3 / RFU, CUL4A / Fold change vs veh, CUL4A / RFU, CCNY / Fold change vs veh, CCNY / RFU, UFL1 / Fold change vs veh, UFL1 / RFU, COG3 / Fold change vs veh, COG3 / RFU, DIAPH2 / Fold change vs veh, DIAPH2 / RFU, SKA2 / Fold change vs veh, SKA2 / RFU, AFF3 / Fold change vs veh, AFF3 / RFU, LMF1 / Fold change vs veh, LMF1 / RFU, IPO11 / Fold change vs veh, IPO11 / RFU, DFFB / Fold change vs veh, DFFB / RFU, FOXP1 / Fold change vs veh, FOXP1 / RFU, CARD8 / Fold change vs veh, CARD8 / RFU, STRN3 / Fold change vs veh, STRN3 / RFU, ADK / Fold change vs veh, ADK / RFU, RASSF2 / Fold change vs veh, RASSF2 / RFU, WIPF1 / Fold change vs veh, WIPF1 / RFU, LARP1B / Fold change vs veh, LARP1B / RFU, RASA1 / Fold change vs veh, RASA1 / RFU, RB1 / Fold change vs veh, RB1 / RFU, PPFIA1 / Fold change vs veh, PPFIA1 / RFU, MAT2A / Fold change vs veh, MAT2A / RFU, CCT5 / Fold change vs veh, CCT5 / RFU, WDR92 / Fold change vs veh, WDR92 / RFU, CUX1 / Fold change vs veh, CUX1 / RFU, TTC7A / Fold change vs veh, TTC7A / RFU, TMEM135 / Fold change vs veh, TMEM135 / RFU, DEPTOR / Fold change vs veh, DEPTOR / RFU, CPM / Fold change vs veh, CPM / RFU, DNAJB6 / Fold change vs veh, DNAJB6 / RFU, CACNA2D3 / Fold change vs veh, CACNA2D3 / RFU, DTX4 / Fold change vs veh, DTX4 / RFU, TFCP2 / Fold change vs veh, TFCP2 / RFU, GMCL1 /// GMCL1P1 / Fold change vs veh, GMCL1 /// GMCL1P1 / RFU, AEBP2 / Fold change vs veh, AEBP2 / RFU, SNHG1 /// SNORD22 /// SNORD25 /// SNORD26 /// SNORD27 /// SNORD28 /// SNORD29 /// SNORD31 / Fold change vs veh, SNHG1 /// SNORD22 /// SNORD25 /// SNORD26 /// SNORD27 /// SNORD28 /// SNORD29 /// SNORD31 / Fold change (Aza/veh), C12orf56 (ProbeSet 11735607_a_at) / Fold change (ACY-1035/veh), C12orf56 (ProbeSet 11735607_a_at) / Fold change (Aza/veh), FGFR1OP (ProbeSet 11751329_s_at) / Fold change (ACY-1035/veh), FGFR1OP (ProbeSet 11751329_s_at) / Fold change (Aza/veh), VPS36 (ProbeSet 11739960_a_at) / Fold change (ACY-1035/veh), VPS36 (ProbeSet 11739960_a_at) / RFU SYPL1 (11715823_x_at) / Fold change /veh SYPL1 (11715823_x_at) / RFU IGFBP7 (11715501_s_at) / Fold change /veh IGFBP7 (11715501_s_at) / RFU REEP3 (11722064_at) / Fold change /veh REEP3 (11722064_at) / RFU IGLL1 (11728026_x_at) / Fold change /veh IGLL1 (11728026_x_at): dose or concentration left out as unconfirmed
Settings: MV-4-11 cells, 48 hours

`Nc1ccc(-c2cccs2)cc1NC(=O)c1ccc2c(c1)cc(C1CC1)n2CCN1CCOCC1` [ACY-1035] was tested, and the “RFU SNX32 (11753110_a_at)” value was 6.46 RFU.
